Measured values: US9067926B2, “Fluoromethyl-5,6-dihydro-4H-[1,3]OXAZINES” (F. Hoffmann-La Roche AG, priority 2012, dated 2015)

Legend:
P-gp (human MDR1) = target: T1, P-gp (human MDR1) (Homo sapiens, UniProt P08183); experiment: P-gp (P-Glycoprotein) bidirectional transcellular transport assay, LLC-PK1 and L-MDR1 cells; format: in vitro ADME; settings: LLC-PK1 cells expressing human MDR1, PappBA/PappAB
T1 construct: host or cells: LLC-PK1 (porcine kidney epithelial cells)
Description: P-gp (P-Glycoprotein) Assay
Cell Lines and Vesicles Used for Transport Experiments
The MDR1 (human multidrug resistance protein 1) transfected cell lines were obtained from Dr. A. Schinkel, The Netherlands Cancer Institute (Amsterdam, The Netherlands). All cell lines were cultured on permeable inserts (Costar, 0.33 cm^2 area, pore size 3.0 μm, low density) at 4.5·10^5 cells/cm^2. Transport measurements were performed at day 4 after seeding. Tightness of the cell monolayer was controlled via the permeability of the extracellular marker lucifer yellow (10 μM).
In Vitro Transport Experiments
Bidirectional transcellular transport using LLC-PK1 and L-MDR1 LLC-PK1 cells exogenously expressing the human MDR1)
The method used for transport experiments were performed on a TECAN automated liquid handling system. Briefly, medium was removed from all compartments and the medium of receiver side was replaced with culture medium. The trans-cellular transport measurements were initiated by adding the substrate together with extracellular marker lucifer yellow to the donor side. Inhibitors were added to both sides (1 μM elacridar). […] The plates were incubated at 37° C. and 5% CO2 in a Liconic incubator. Samples were taken from the donor and the opposite (acceptor) side after 2 hours incubation. Concentrations of substrate in both compartments were determined by scintillation counting (digoxin) or by LC-MS/MS. […] In each experiment 3 different inserts were used for each condition and a mean was calculated.
Bidirectional transcellular transport using LLC-PK1 and L-MDR1 cells
For the transcellular transport, the following equation was used for data evaluation: […]
Where Papp, A, C0, and dQ/dt represent the apparent permeability, the filter surface area, the initial concentration, and the amount transported per time period, respectively.
Transport efflux ratios (ER) were calculated as follows: […]
Where PappBA is the permeability value in the basolateral-to-apical direction, and PappAB the permeability value in the apical-to-basolateral direction. Papp were not corrected for flux of the extracellular marker lucifer yellow, which was used to assess the quality of the cell mono layers.

[1] = target: T2, cathepsin D (from human liver) (Homo sapiens, UniProt P07339); experiment: Cathepsin D fluorescent substrate kinetic assay; format: biochemical; settings: pH 5.5
T2 construct: cathepsin D (from human liver, Calbiochem) diluted in assay buffer; purchased Calbiochem; host or cells: human liver
Description: Cathepsin D and Cathepsin E Fluorescent Substrate Kinetic Assays
The MR121 fluorescence assays described below are based on the fact that MR121 forms a non-fluorescent ground state complex with tryptophan. In solution this formation occurs at millimolar concentrations of tryptophan. The mechanism can be used to design a generic biochemical assay for proteases. […] In absence of protease activity, the substrates remain intact and the MR121 fluorescence is reduced by the high local Trp-concentration. If the substrates are cleaved by the enzymes the MR121 fluorescence is recovered.
The fluorescent substrate cathepsin D and cathepsin E kinetic assays were performed at room temperature in 384-well microtiter plates (black with clear flat bottom, non binding surface plates from Corning) in a final volume of 51 μl. The test compounds were serially diluted in DMSO (15 concentrations, 1/3 dilution steps) and 1 μl of diluted compounds were mixed for 10 min with 40 μl of cathepsin D (from human liver, Calbiochem) diluted in assay buffer (100 mM sodium acetate, 0.05% BSA, pH 5.5; final concentration: 200 nM) or with 40 μl of recombinant human cathepsin E (R&D Systems) diluted in assay buffer (100 mM sodium acetate, 0.05% BSA, pH 4.5; final concentration: 0.01 nM). […] The slope in the linear range of the kinetic was calculated and the IC50 of the test compounds were determined using a four parameter equation for curve fitting.

BACE1 = target: T3, BACE1 (Homo sapiens, UniProt P56817); experiment: Cellular Aβ-lowering assay (Abeta 40 AlphaLISA); format: cell-based; settings: HEK293 APP cells, 18-20 hrs incubation, Aβ 40 in culture supernatant; read-out: BACE1 cell act. Aβ40 IC50
T3 construct: endogenous in cells; host or cells: HEK293 APP cells
Description: Cellular Aβ-Lowering Assay:
The Abeta 40 AlphaLISA Assay can be used. The HEK293 APP cells were seeded in 96 well Microtiter plates in cell culture medium (Iscove's, plus 10% (vv) fetal bovine serum, penicillinstreptomycin) to about 80% confluency and the compounds were added at a 3× concentration in 13 volume of culture medium (final DMSO concentration was kept at 1% vv). After 18-20 hrs incubation at 37° C. and 5% CO2 in a humidified incubator, the culture supernatants were harvested for the determination of Aβ 40 concentrations using Perkin-Elmer Human Amyloid beta 1-40 (high specificity) Kit (Cat# AL275C).
Levels of Aβ 40 in the culture supernatants were calculated as percentage of maximum signal (cells treated with 1% DMSO without inhibitor). The IC50 values were calculated using the Excel XLfit software.

CYP2D6 = target: T4, CYP2D6 (Homo sapiens, UniProt P10635); experiment: CYP inhibition assay, CYP2D6; format: in vitro ADME; settings: pooled human liver microsomes, dextromethorphan substrate; read-out: CYP IC50 2D6
T4 construct: 0.2 mg/ml pooled human liver microsomes; from tissue; host or cells: pooled human liver microsomes
Description: Inhibition of cytochromes P450 (CYPs) 2C9, 2D6 and 3A4 was assessed using human liver microsomes and CYP-selective substrate metabolism reactions. […] Quenched incubates were stored at −20° C. for at least 1 hour before centrifugation (20,000×g, 20 minutes). Supernatants were removed and diluted 1:1 with water prior to analysis using a RapidFire sample injector system and API4000 mass spectrometer. Peak areas for substrate, metabolite and stable-labelled metabolite standard were determined using MS/MS. The peak area ratios between the metabolite generated by the enzymatic reaction and the internal standard were used in subsequent calculations. The percentage of (DMSO) control activity was calculated for each incubate and IC50 values estimated by non-linear regression. Sulfaphenazole, quinidine or ketoconazole were tested in each CYP2C9, CYP2D6 or CYP3A4 inhibition experiment, respectively, to ensure assay sensitivity and reproducibility.

[2] = Detection of glutathione conjugates (GSH); format: in vitro ADME, human; set-up: key: NF = in vitro no adduct formation relative to control; settings: in vitro, relative to control
Description: Detection of Glutathione Conjugates (GSH) The assay conditions for the detection of glutathione conjugates follow the procedure described by C. M. Dieckhaus et al. in Chem. Res. Toxicol. 2005, 18, 630-63.

T3 sequence (P56817 46-501): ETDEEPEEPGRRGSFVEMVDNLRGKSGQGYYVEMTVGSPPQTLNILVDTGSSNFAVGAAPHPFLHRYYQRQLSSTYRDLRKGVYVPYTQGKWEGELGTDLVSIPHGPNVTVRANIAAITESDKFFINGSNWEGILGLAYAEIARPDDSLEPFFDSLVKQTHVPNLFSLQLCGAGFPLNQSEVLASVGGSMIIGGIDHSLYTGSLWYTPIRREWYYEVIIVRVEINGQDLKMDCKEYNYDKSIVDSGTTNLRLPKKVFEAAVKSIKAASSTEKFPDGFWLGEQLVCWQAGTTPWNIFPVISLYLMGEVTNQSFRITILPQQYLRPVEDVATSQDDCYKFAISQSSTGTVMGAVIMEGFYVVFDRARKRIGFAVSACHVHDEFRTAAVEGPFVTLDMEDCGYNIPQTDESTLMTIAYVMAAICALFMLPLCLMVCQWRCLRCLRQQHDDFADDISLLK
T2 sequence (P07339 65-412): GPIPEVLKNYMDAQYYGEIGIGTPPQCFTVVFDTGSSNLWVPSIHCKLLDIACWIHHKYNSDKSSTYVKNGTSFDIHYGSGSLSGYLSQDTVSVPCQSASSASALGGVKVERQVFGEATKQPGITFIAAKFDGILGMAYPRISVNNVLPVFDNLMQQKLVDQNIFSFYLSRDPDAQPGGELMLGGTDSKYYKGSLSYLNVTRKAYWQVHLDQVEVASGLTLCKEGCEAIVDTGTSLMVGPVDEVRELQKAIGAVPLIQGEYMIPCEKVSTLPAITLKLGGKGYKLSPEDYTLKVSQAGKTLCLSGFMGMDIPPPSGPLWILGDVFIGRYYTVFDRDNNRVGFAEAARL
T1 sequence (P08183 whole entry): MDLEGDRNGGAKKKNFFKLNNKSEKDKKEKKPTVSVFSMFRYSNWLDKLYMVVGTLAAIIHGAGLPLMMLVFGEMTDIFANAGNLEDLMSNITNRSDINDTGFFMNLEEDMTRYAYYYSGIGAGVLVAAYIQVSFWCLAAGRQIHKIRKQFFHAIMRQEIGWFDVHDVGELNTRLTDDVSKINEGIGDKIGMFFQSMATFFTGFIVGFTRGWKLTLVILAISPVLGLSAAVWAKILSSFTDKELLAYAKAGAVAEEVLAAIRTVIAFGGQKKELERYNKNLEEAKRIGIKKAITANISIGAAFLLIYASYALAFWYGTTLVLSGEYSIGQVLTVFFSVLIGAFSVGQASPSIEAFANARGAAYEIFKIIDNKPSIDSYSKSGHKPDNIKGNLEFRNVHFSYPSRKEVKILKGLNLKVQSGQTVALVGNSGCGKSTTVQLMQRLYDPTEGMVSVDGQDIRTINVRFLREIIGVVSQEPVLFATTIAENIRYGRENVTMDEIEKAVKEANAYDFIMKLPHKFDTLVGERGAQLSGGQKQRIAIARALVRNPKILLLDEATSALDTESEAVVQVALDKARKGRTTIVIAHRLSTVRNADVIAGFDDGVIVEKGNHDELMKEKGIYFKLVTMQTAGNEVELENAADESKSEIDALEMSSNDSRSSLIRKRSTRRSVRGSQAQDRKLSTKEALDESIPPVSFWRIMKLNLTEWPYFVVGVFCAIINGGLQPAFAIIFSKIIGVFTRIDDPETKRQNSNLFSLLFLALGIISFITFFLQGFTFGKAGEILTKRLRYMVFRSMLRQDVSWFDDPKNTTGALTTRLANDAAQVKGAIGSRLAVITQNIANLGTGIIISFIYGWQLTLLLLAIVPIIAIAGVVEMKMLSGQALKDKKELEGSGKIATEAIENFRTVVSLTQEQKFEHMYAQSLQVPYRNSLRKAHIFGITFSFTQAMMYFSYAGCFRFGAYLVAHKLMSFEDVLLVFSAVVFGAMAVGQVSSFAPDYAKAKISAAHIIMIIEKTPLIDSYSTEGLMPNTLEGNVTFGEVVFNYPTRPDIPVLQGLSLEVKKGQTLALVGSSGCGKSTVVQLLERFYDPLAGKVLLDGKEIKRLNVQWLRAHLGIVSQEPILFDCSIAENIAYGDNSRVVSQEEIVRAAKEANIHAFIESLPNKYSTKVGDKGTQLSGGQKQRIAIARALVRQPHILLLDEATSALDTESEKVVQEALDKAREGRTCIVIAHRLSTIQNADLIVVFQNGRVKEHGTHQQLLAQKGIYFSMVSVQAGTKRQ
T4 sequence (P10635 whole entry): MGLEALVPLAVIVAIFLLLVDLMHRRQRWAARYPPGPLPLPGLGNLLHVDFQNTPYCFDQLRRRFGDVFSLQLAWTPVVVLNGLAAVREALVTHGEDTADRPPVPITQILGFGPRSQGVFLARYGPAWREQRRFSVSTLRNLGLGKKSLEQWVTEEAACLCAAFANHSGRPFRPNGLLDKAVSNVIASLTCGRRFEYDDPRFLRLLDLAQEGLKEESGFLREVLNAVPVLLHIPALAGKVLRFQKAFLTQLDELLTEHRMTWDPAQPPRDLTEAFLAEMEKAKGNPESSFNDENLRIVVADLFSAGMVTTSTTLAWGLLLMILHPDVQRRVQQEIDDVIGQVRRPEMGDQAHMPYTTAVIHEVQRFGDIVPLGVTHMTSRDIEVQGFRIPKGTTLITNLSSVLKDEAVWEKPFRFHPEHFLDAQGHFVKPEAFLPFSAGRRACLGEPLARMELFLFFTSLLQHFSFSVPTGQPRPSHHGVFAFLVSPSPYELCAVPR

SMILES	efflux ratio at 2 h (P-gp (human MDR1))	IC50 [1] [µM]	IC50 (BACE1) [µM]	IC50 (CYP2D6) [µM]	GSH human (glutathione adduct formation) [2]
C[C@@]1(c2cc(NC(=O)c3ccc(Cl)cn3)ccc2F)C[C@@H](C(F)(F)F)OC(N)=N1 [Example 2, N-(3-((4S,6S)-2-amino-4-methyl-6-(trifluoromethyl)-5,6-dihydro-4H-1,3-oxazin-4-yl)-4-fluorophenyl)-5-chloropicolinamide]	1.82	> 200	0.005	3.9	NF
C[C@@]1(c2cc(NC(=O)c3ccc(OCF)cn3)ccc2F)C[C@@H](C(F)(F)F)OC(N)=N1 [Example 11, N-(3-((4S,6S)-2-Amino-4-methyl-6-(trifluoromethyl)-5,6-dihydro-4H-1,3-oxazin-4-yl)-4-fluorophenyl)-5-(fluoromethoxy)picolinamide]	2.3	> 200	0.004	1.6	NF
CC#CCOc1cnc(C(=O)Nc2ccc(F)c([C@]3(C)C[C@@H](C(F)(F)F)OC(N)=N3)c2)cn1 [Example 22, N-(3-((4S,6S)-2-Amino-4-methyl-6-(trifluoromethyl)-5,6-dihydro-4H-1,3-oxazin-4-yl)-4-fluorophenyl)-5-(but-2-ynyloxy)pyrazine-2-carboxamide]	2.63	179	0.0002	13	NF
NC1=N[C@](CF)(c2cc(NC(=O)c3ccc(OCF)cn3)ccc2F)C[C@@H](C(F)(F)F)O1 [Example 35, N-(3-((4S,6S)-2-Amino-4-(fluoromethyl)-6-(trifluoromethyl)-5,6-dihydro-4H-1,3-oxazin-4-yl)-4-fluorophenyl)-5-(fluoromethoxy)picolinamide]	1.5	> 200	0.019	5.2	NF
